Read-outs that look alike come from different tables or passages of the source.
Target: T1, HCMV polymerase (Human cytomegalovirus, UniProt P08546)
T1 construct: made in house; host or cells: recombinant baculovirus-infected SF-9 insect cells
Assay: biochemical
Protocol: The HCMV polymerase assay is performed using a scintillation proximity assay (SPA) as described in several references, such as N. D. Cook, et al., Pharmaceutical Manufacturing International, pages 49-53 (1992); K. Takeuchi, Laboratory Practice, September issue (1992); U.S. Pat. No. 4,568,649 (1986); which are incorporated by reference herein. Reactions are performed in 96-well plates. The assay is conducted in 100 μl volume with 5.4 mM HEPES (pH 7.5), 11.7 mM KCl, 4.5 mM MgCl2, 0.36 mg/ml BSA, and 90 nM ^3 H-dTTP. Assays are run with and without CHAPS, (3-[(3-Cholamidopropyl)dimethylammonio]-1-propane-sulfonate) at a final concentration of 2 mM. HCMV polymerase is diluted in enzyme dilution buffer containing 50% glycerol, 250 mM NaCl, 10 mM HEPES (pH 7.5), 100 μg/ml BSA, and 0.01% sodium azide. The HCMV polymerase, which is expressed in recombinant baculovirus-infected SF-9 cells and purified according to literature procedures, is added at 10% (or 10 μl) of the final reaction volume, i.e., 100 μl. Compounds are diluted in 50% DMSO and 10 μl are added to each well. Control wells contain an equivalent concentration of DMSO. Unless noted otherwise, reactions are initiated via the addition of 6 nM biotinylated poly(dA)-oligo(dT) template/primer to reaction mixtures containing the enzyme, substrate, and compounds of interest. Plates are incubated in a 25 C. or 37 C. H2 O bath and terminated via the addition of 40 μl/reaction of 0.5 M EDTA (pH 8) per well. Reactions are terminated within the time-frame during which substrate incorporation is linear and varied depending upon the enzyme and conditions used, i.e., 30 min. for HCMV polymerase. Ten μl of streptavidin-SPA beads (20 mg/ml in PBS/10% glycerol) are added following termination of the reaction. Plates are incubated 10 min. at 37 C., then equilibrated to room temperature, and counted on a Packard Topcount. Linear regressions are performed and IC50 's are calculated using computer software.
A modified version of the above HCMV polymerase assay is performed as described above, but with the following changes: Compounds are diluted in 100% DMSO until final dilution into assay buffer. In the previous assay, compounds are diluted in 50% DMSO. 4.5 mM dithiotherotol (DTT) is added to the polymerase buffer.

[1] = HCMV polymerase, SPA, modified assay: compounds in 100% DMSO, 4.5 mM DTT

T1 sequence (P08546 whole entry): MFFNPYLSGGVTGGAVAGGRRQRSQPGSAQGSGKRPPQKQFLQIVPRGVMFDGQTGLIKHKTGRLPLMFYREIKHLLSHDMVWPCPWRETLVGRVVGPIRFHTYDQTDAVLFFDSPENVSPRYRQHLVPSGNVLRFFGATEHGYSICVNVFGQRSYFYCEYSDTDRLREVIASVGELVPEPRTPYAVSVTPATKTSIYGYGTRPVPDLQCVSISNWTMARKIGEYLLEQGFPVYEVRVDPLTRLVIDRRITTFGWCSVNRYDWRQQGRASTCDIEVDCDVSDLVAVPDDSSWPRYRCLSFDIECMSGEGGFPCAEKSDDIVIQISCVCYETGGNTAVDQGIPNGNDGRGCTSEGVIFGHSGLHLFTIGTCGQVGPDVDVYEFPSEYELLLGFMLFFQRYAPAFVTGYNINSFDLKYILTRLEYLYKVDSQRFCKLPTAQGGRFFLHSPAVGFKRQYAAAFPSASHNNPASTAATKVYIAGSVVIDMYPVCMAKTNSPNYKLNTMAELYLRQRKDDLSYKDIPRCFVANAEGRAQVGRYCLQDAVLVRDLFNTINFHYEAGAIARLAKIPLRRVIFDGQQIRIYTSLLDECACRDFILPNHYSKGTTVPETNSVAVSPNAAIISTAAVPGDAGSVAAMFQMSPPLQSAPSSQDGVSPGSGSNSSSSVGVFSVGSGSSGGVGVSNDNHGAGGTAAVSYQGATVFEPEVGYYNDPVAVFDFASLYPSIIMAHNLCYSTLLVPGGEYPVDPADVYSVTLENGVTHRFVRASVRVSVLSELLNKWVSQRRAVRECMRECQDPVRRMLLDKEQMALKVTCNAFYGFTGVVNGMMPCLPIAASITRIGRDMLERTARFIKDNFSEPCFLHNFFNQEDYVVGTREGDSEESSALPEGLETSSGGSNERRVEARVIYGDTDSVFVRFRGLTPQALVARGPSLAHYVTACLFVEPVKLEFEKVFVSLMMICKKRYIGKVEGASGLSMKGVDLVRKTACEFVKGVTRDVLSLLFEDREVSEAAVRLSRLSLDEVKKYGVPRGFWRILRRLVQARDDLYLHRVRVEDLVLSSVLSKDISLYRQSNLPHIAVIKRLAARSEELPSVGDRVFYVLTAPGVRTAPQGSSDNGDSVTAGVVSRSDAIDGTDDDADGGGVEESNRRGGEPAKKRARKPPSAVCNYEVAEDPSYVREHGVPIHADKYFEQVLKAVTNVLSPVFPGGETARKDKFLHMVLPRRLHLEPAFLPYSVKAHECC

| SMILES | IC50 [µM] | IC50 [1] [µM] |
| --- | --- | --- |
| O=C(NCc1ccc(Cl)cc1)c1cn(CCN2CCOCC2)c2ccc(C#CCO)cc2c1=O [Example 19, N-(4-Chlorobenzyl)-6-(3-hydroxy-1-propynyl)-1-[2-(4-morpholinyl)ethyl]-4-oxo-1,4-dihydro-3-quinolinecarboxamide] | 1.8 | – |
| CN(C)CCCn1cc(C(=O)NCc2ccc(Cl)cc2)c(=O)c2cc(C#CCO)ccc21 [Example 20, N-(4-Chlorobenzyl)-1-[3-(dimethylamino)propyl]-6-(3-hydroxy-1-propynyl)-4-oxo-1,4-dihydro-3-quinolinecarboxamide] | – | 3.8 |
| C=Cn1cc(C(=O)NCc2ccc(Cl)cc2)c(=O)c2cc(C#CCO)ccc21 [Example 21, N-(4-Chlorobenzyl)-6-(3-hydroxy-1-propynyl)-4-oxo-1-vinyl-1,4-dihydro-3-quinolinecarboxamide] | – | 1.4 |
| Cn1cc(C(=O)NCc2ccc(Cl)cc2)c(=O)c2cc(/C=C/CO)ccc21 [Example 22, N-(4-chlorobenzyl)-6-[(E)-3-hydroxy-1-propenyl]-1-methyl-4-oxo-1,4-dihydro-3-quinolinecarboxamide] | – | 0.81 |
| Cn1cc(C(=O)NCc2ccc(Cl)cc2)c(=O)c2cc(/C=C\CO)ccc21 [Example 23, N-(4-chlorobenzyl)-6-[(Z)-3-hydroxy-1-propenyl]-1-methyl-4-oxo-1,4-dihydro-3-quinolinecarboxamide] | – | 0.62 |
| CCN(CCO)c1ccc2c(c1)c(=O)c(C(=O)NCc1ccc(Cl)cc1)cn2C [Example 24, N-(4-Chlorobenzyl)-6-[ethyl(2-hydroxyethyl)amino]-1-methyl-4-oxo-1,4-dihydro-3-quinolinecarboxamide] | – | 23.6 |
| O=C(NCc1ccc(Cl)cc1)c1cn(C2CC2)c2ccc(CN3CCOCC3)cc2c1=O [Example 27, N-(4-Chlorobenzyl)-1-cyclopropyl-6-(4-morpholinylmethyl)-4-oxo-1,4-dihydro-3-quinolinecarboxamide] | – | 0.61 |
| CC(C)(C)OC(=O)Cn1cc(C(=O)NCc2ccc(Cl)cc2)c(=O)c2cc(C#CCO)ccc21 [Example 28, tert-Butyl 2-[3-{[(4-chlorobenzyl)amino]carbonyl}-6-(3-hydroxy-1-propynyl)-4-oxo-1(4H)-quinolinyl]acetate] | – | 1.8 |
| O=C(O)Cn1cc(C(=O)NCc2ccc(Cl)cc2)c(=O)c2cc(C#CCO)ccc21 [Example 29, 2-[3-{[(4-Chlorobenzyl)amino]carbonyl}-6-(3-hydroxy-1-propynyl)-4-oxo-1(4H)-quinolinyl]acetic acid] | – | 1 |
| O=C(NCc1ccc(Cl)cc1)c1cn(CCO)c2ccc(C#CCO)cc2c1=O [Example 30, N-(4-Chlorobenzyl)-1-(2-hydroxyethyl)-6-(3-hydroxy-1-propynyl)-4-oxo-1,4-dihydro-3-quinolinecarboxamide] | – | 0.95 |
| Cn1cc(C(=O)NCc2ccc(Cl)cc2)c(=O)c2cc(CCCOP(=O)(OC(C)(C)C)OC(C)(C)C)ccc21 [Example 32, Di(tert-butyl) 3-(3-{[(4-chlorobenzyl)amino]carbonyl}-1-methyl-4-oxo-1,4-dihydro-6-quinolinyl)propyl phosphate] | – | 27.2 |
| Cn1cc(C(=O)NCc2ccc(Cl)cc2)c(=O)c2cc(CCCOP(=O)(O)O)ccc21 [Example 33, 3-(3-{[(4-Chlorobenzyl)amino]carbonyl}-1-methyl-4-oxo-1,4-dihydro-6-quinolinyl)propyl dihydrogen phosphate] | – | 3.7 |
| CC(C)(C)OP(=O)(OCCCc1ccc2c(c1)c(=O)c(C(=O)NCc1ccc(Cl)cc1)cn2C1CC1)OC(C)(C)C [Example 34, Di(tert-butyl) 3-(3-{[(4-chlorobenzyl)amino]carbonyl}-1-cyclopropyl-4-oxo-1,4-dihydro-6-quinolinyl)propyl phosphate] | – | > 20 |
| CN(CCS(=O)(=O)O)C(=O)CCCCCCC(=O)OCC#Cc1ccc2c(c1)c(=O)c(C(=O)NCc1ccc(Cl)cc1)cn2C [Example 37, Sodium 2-[(8-{[3-(3-{[(^4-chlorobenzyl)amino]carbonyl}-1-methyl-4-oxo-1,4-dihydro-6-quinolinyl)-2-propynyl]oxy}-8-oxooctanoyl)(methyl)amino]-1-ethanesulfonate] | – | > 20 |
| CC(C)(C)n1cc(C(=O)NCc2ccc(Cl)cc2)c(=O)c2cc(C#CCO)ccc21 [Example 39] | – | 2.2 |
| COCCOCCn1cc(C(=O)NCc2ccc(Cl)cc2)c(=O)c2cc(C#CCO)ccc21 [Example 42, N-(4-Chlorobenzyl)-6-(3-hydroxy-1-propynyl)-1-[2-(2-methoxyethoxy)ethyl]-4-oxo-1,4-dihydro-3-quinolinecarboxamide] | – | 1.2 |
| Cn1cc(C(=O)NCc2ccc(C#N)cc2)c(=O)c2cc(C#CCO)ccc21 [Example 43, N-(4-Cyanobenzyl)-6-(3-hydroxy-1-propynyl)-1-methyl-4-oxo-1,4-dihydro-3-quinolinecarboxamide] | – | 9.4 |
| Cn1cc(C(=O)NCc2ccc(Cl)cc2)c(=O)c2cc(CN(CCO)CCO)ccc21 [Example 44, 6-((Bis(2-hydroxyethyl)amino)methyl)-N-(4-chlorobenzyl)-1-1-methyl-4-oxo-1,4-dihydro-3-quinolinecarboxamide.] | – | 9.3 |
| CN(CCO)Cc1ccc2c(c1)c(=O)c(C(=O)NCc1ccc(Cl)cc1)cn2C [Example 45, N-(4-Chlorobenzyl)-6-(((2-hydroxyethyl)(methyl)amino)-methyl)-1-methyl-4-oxo-1,4-dihydro-3-quinolinecarboxamide] | – | 11.9 |
| Cn1cc(C(=O)NCc2ccc(Cl)cc2)c(=O)c2cc(CN3CCCOCC3)ccc21 [Example 46, N-(4-Chlorobenzyl)-1-methyl-6-(1,4-oxazepan-4-ylmethyl)-4-oxo-1,4-dihydro-3-quinolinecarboxamide] | – | 5.5 |
| Cn1cc(C(=O)NCc2ccc(Cl)cc2)c(=O)c2cc(CN3CCCSCC3)ccc21 [Example 47, N-(4-Chlorobenzyl)-1-methyl-4-oxo-6-(1,4-thiazepan-4-ylmethyl)-1,4-dihydro-3-quinolinecarboxamide] | – | 7.2 |
| Cn1cc(C(=O)NCc2ccc(Cl)cc2)c(=O)c2cc(CN3C[C@@H]4C[C@H]3CO4)ccc21 [Example 48, N-(4-Chlorobenzyl)-1-methyl-6-(2-oxa-5-azabicyclo(2.2. 1]-hept-5-ylmethyl)-4-oxo-1,4-dihydro-3-quinolinecarboxamide] | – | 13.6 |
| Cn1cc(C(=O)NCc2ccc(Cl)cc2)c(=O)c2cc(CN3CCOc4ccccc43)ccc21 [Example 49, N-(4-Chlorobenzyl)-6-(2,3-dihydro-4H-1,4-benzoxazin-4-ylmethyl)-1-methyl-4-oxo-1,4-dihydro-3-quinolinecarboxamide] | – | 2.2 |
| Cn1cc(C(=O)NCc2ccc(Cl)cc2)c(=O)c2cc(CN(CCO)Cc3ccccc3)ccc21 [Example 50, 6-((Benzyl(2-hydroxyethyl)amino)methyl)-N-(4-chlorobenzyl)-1-methyl-4-oxo-1,4-dihydro-3-quinolinecarboxamide] | – | 11.5 |
| Cn1cc(C(=O)NCc2ccc(Cl)cc2)c(=O)c2cc(CN=[N+]=[N-])ccc21 [Example 51, 6-(Azidomethyl)-N-(4-chlorobenzyl)-1-methyl-4-oxo-1,4-dihydro-3-quinolinecarboxamide] | – | 1.3 |
| Cn1cc(C(=O)NCc2ccc(Cl)cc2)c(=O)c2cc(CN3CCC(F)(F)CC3)ccc21 [Example 52, N-(4-chlorobenzyl)-6-((4,4-difluoro-1-piperidinyl)methyl)-1-methyl-4-oxo-1,4-dihydro-3-quinolinecarboxamide] | – | 9.6 |
| Cn1cc(C(=O)NCc2ccc(Cl)cc2)c(=O)c2cc(CN3CC=C(F)CC3)ccc21 [Example 53, N-(4-Chlorobenzyl)-6-((4-fluoro-3,6-dihydro-1(2H)-pyridinyl)methyl)-1-methyl-4-oxo-1,4-dihydro-3-quinolinecarboxamide] | – | 11.7 |
| C=Cc1ccc2c(c1)c(=O)c(C(=O)NCc1ccc(Cl)cc1)cn2C [Example 54, N-(4-Chlorobenzyl)-1-methyl-4-oxo-6-vinyl-1,4-dihydro-3-quinolinecarboxamide] | – | 3.3 |
| COCCOCCOCCn1cc(C(=O)NCc2ccc(Cl)cc2)c(=O)c2cc(CN3CCOCC3)ccc21 [Example 56, N-(4-Chlorobenzyl)-1-{2-[2-(2-methoxyethoxy)ethoxy]ethyl}-6-(4-morpholinylmethyl)-4-oxo-1,4-dihydro-3-quinolinecarboxamide] | – | 3 |
| O=C(NCc1ccc(Cl)cc1)c1cn(CCOCCO)c2ccc(CN3CCOCC3)cc2c1=O [Example 57, N-(4-Chlorobenzyl)-1-[2-(2-hydroxyethoxy)ethyl]-6-(4-morpholinylmethyl)-4-oxo-1,4-dihydro-3-quinolinecarboxamide] | – | 1.2 |
